Numbers after ± are expanded uncertainties.
What was measured:
[1] = 298.15 K; 101.33 kPa; Liquid
[2] = refractive index (Na D-line) (dimensionless); settings: 298.15 K; 101.33 kPa; Liquid; Standard Abbe refractometry

| mass density [1] | refractive index [2] | Structure (SMILES) |
| --- | --- | --- |
| 797.83 ± 0.48 kg/m3 | 1.3938 ± 0.0005 | CC(C)CO [2-methyl-1-propanol] |
| 866.12 ± 1.4 kg/m3 | 1.3876 ± 0.0006 | CC(=O)OCC(C)C [2-methylpropyl ethanoate] |
| 1043.9 ± 0.11 kg/m3 | 1.3696 ± 0.0005 | CC(=O)O [acetic acid] |
|  | 1.3325 ± 0.0005 | O [water] |

— the NIST ThermoML archive (doi:10.1016/j.fluid.2008.07.001)
